Laboratory results: article PMC9073595, “Synthesis, human topoisomerase IIα inhibitory properties and molecular modeling studies of anti-proliferative curcumin mimics” (RSC Advances, 2019)

Columns and labels:
[1] = system: A431 (squamous skin) carcinoma cell line; experiment: MTT anti-proliferative assay, A431; format: cell-based; conditions: Homo sapiens, A-431, 72 h; read-out: IC50, μM ± SD, A431
[2] = target: T1, human DNA topoisomerase IIα (Homo sapiens, UniProt P11388); experiment: Human DNA topoisomerase IIα activity assay (TopoGEN kit, plasmid based); format: biochemical
T1 construct: purchased TopoGEN, Inc
T1 sequence (P11388 whole entry): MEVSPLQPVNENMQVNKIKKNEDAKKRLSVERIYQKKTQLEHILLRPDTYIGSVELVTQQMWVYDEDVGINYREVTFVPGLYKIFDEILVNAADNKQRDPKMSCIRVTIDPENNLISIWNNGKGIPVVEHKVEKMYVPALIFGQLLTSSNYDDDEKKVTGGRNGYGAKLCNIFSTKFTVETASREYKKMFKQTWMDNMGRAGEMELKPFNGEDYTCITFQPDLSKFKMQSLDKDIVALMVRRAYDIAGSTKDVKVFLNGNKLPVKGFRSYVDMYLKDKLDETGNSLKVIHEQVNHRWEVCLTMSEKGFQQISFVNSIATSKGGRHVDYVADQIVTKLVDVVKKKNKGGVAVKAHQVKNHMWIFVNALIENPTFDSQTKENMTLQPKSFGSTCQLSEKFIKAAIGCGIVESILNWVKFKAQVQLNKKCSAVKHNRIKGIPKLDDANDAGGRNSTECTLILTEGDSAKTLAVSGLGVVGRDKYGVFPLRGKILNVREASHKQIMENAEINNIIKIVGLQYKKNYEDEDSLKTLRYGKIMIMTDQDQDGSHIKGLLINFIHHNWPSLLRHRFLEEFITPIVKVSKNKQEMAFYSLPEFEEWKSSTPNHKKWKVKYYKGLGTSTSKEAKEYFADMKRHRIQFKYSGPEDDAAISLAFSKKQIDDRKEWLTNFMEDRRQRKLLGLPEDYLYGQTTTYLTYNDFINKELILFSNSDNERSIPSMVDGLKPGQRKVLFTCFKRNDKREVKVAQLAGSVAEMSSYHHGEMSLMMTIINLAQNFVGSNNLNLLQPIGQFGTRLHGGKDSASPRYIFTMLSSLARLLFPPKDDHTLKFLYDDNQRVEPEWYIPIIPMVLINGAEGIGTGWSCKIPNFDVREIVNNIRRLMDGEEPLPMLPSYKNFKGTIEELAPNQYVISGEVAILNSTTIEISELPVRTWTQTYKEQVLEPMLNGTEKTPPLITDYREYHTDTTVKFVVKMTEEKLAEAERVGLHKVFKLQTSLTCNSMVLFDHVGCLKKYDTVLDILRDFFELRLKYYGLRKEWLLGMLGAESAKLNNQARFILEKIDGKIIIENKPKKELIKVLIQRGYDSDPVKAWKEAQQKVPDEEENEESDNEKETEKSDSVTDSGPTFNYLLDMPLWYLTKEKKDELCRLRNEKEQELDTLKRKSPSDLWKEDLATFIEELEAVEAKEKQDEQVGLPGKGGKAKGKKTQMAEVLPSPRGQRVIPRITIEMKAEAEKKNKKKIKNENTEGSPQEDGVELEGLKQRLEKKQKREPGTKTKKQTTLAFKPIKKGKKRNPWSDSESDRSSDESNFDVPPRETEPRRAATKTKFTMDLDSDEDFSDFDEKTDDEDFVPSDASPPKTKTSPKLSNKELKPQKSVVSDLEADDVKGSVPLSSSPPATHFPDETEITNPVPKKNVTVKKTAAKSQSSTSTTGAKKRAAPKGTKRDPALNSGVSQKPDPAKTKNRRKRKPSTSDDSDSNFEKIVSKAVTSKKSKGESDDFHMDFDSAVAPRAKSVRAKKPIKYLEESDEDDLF

[3] = system: RPE1 (normal human immortalized retinal pigment epithelial cell line); experiment: MTT assay on normal cells, RPE1; format: cell-based; conditions: RPE-1, RPE1 normal (non-cancer) cell line, read-out: IC50, μM ± SD, RPE1
Procedure: In-vitro antitumor screening
The targeted piperidinecarboxamides 24‒51 were screened for their antitumor properties against HCT116 (colon), MCF7 (breast) and A431 (squamous skin) carcinoma cell lines by the standard mitochondrial dependent reduction of yellow MTT [3-(4,5-dimethylthiazol-2-yl)-2,5-diphenyl-tetrazolium bromide] to purple formazan technique.11 Cells were suspended in McCoy’s 5A medium for HCT116, DMEM for MCF-7 and A431 in addition to 1% antibiotic–antimycotic mixture (10000 μg ml-1 potassium penicillin, 10000 μg ml-1 streptomycin sulfate and 25 μg ml-1 amphotericin B), 10% fetal bovine serum and 1% L-glutamine at 37 °C, under 5% CO2 and 95% humidity. Cells were seeded at concentration of 30000 cells per well in fresh complete growth medium in 96-well tissue culture microtiter plates for 24 h. Media was aspirated, fresh complete medium was added and cells were incubated with different concentrations of the tested compound to give a final concentration of [50, 25, 12.5 and 6.25 μM ([…] and 0.375 μM for the high potent analogues)]. 0.5% DMSO was used as negative control and 5-fluorouracil was used as positive control (standard reference). Triplicate wells were prepared for each individual dose. After 72 h of incubation, medium was aspirated, 40 μl MTT salt (2.5 mg ml-1) were added to each well and incubated for further 4 h at 37 °C.
To stop the reaction and dissolve the formed crystals, 150 μl of 10% sodium dodecyl sulfate (SDS) in deionized water were added to each well and incubated overnight at 37 °C. The absorbance was then measured at 570 nm and a reference wavelength of 595 nm.
Data were collected as mean values for experiments performed in triplicates for each individual dose which had been measured by MTT assay. Control experiments did […]
survival was calculated according to equ. (1).
Surviving fraction = … . (1)
The synthesized compounds 24‒51 were also tested against RPE1 (normal human immortalized retinal pigment epithelial cell line) cell to determine the toxicity/selectivity […]
towards normal cells relative to the carcinoma cell lines utilized. The IC50 (concentration […]
was determined using Graph-Pad PRISM version-5 software. Statistical calculations for determination of the mean and standard error values were determined by SPSS 16 […]
8:1 which is the ratio between the data points and the number of QSAR descriptor).
Human DNA topoisomerase IIα inhibitory properties

[4] = system: HCT116 (colon) carcinoma cell line; experiment: MTT anti-proliferative assay, HCT116; format: cell-based; conditions: Homo sapiens, HCT-116, 72 h; read-out: IC50, μM ± SD, HCT116
[5] = system: MCF7 (breast) carcinoma cell line; experiment: MTT anti-proliferative assay, MCF7; format: cell-based; conditions: Homo sapiens, MCF7, 72 h; read-out: IC50, μM ± SD, MCF7

melting point	IC50 [1]	IC50 [2]	IC50 [4]	IC50 [5]	SMILES	IC50 [3]
185 to 187 °C	2.85 ± 0.16 µM	46.2 ± 1.79 µM	1.11 ± 0.09 µM	4.17 ± 0.27 µM	COc1ccc(/C=C2\CN(C(=O)Nc3ccc(Cl)cc3)C/C(=C\c3ccc(OC)cc3)C2=O)cc1 [Compound 44, N-(4-Chlorophenyl)-3,5-bis[(E)-4-methoxybenzylidene]-4-oxopiperidine-1-carboxamide]	> 50 µM
199 to 201 °C	1.45 ± 0.12 µM		1.13 ± 0.19 µM	2.14 ± 0.26 µM	O=C1/C(=C/c2ccc(Cl)cc2)CN(C(=O)NCc2ccccc2)C/C1=C\c1ccc(Cl)cc1 [Compound 33, N-Benzyl-3,5-bis[(E)-4-chlorobenzylidene]-4-oxopiperidine-1-carboxamide]	11.4 ± 1.68 µM
189 to 191 °C	1.31 ± 0.08 µM	23 ± 1.37 µM	0.62 ± 0.05 µM	1.71 ± 0.12 µM	COc1ccc(NC(=O)N2C/C(=C\c3ccc(F)cc3)C(=O)/C(=C/c3ccc(F)cc3)C2)cc1 [Compound 36, 3,5-Bis[(E)-4-fluorobenzylidene]-N-(4-methoxyphenyl)-4-oxopiperidine-1-carboxamide]	9.46 ± 1.86 µM
184 to 186 °C	2.83 ± 0.36 µM		1.43 ± 0.2 µM	2.48 ± 0.31 µM	COc1ccc(NC(=O)N2C/C(=C\c3ccccc3)C(=O)/C(=C/c3ccccc3)C2)cc1 [Compound 26, 3,5-Di[(E)-benzylidene]-N-(4-methoxyphenyl)-4-oxopiperidine-1-carboxamide]	17.7 ± 1.98 µM
180 to 182 °C	1.18 ± 0.11 µM	27.2 ± 1.72 µM	0.57 ± 0.07 µM	2.32 ± 0.3 µM	CCNC(=O)N1C/C(=C\c2ccc(F)cc2)C(=O)/C(=C/c2ccc(F)cc2)C1 [Compound 37, N-Ethyl-3,5-bis[(E)-4-fluorobenzylidene]-4-oxopiperidine-1-carboxamide]	9.78 ± 1.53 µM
	> 50 µM		> 50 µM	> 50 µM	O=C1/C(=C/c2cccs2)CN(C(=O)NCc2ccccc2)C/C1=C\c1cccs1 [Compound 51, (3E,5E)-N-Benzyl-4-oxo-3,5-bis(thiophen-2-ylmethylene)piperidine-1-carboxamide]	> 50 µM
192 to 194 °C	1.2 ± 0.14 µM	26.4 ± 1.61 µM	0.56 ± 0.06 µM	1.36 ± 0.17 µM	O=C1/C(=C/c2ccc(F)cc2)CN(C(=O)Nc2ccc(Cl)cc2)C/C1=C\c1ccc(F)cc1 [Compound 35, N-(4-Chlorophenyl)-3,5-bis[(E)-4-fluorobenzylidene]-4-oxopiperidine-1-carboxamide]	8.26 ± 2.33 µM
174 to 176 °C	2.64 ± 0.27 µM	50.2 ± 1.94 µM	2.26 ± 0.23 µM	4.58 ± 0.28 µM	CCNC(=O)N1C/C(=C\c2ccc(C)cc2)C(=O)/C(=C/c2ccc(C)cc2)C1 [Compound 41, N-Ethyl-3,5-bis[(E)-4-methylbenzylidene]-4-oxopiperidine-1-carboxamide]	18.9 ± 1.33 µM
191 to 193 °C	1.27 ± 0.09 µM	30.7 ± 1.32 µM	0.56 ± 0.04 µM	2.34 ± 0.29 µM	O=C1/C(=C/c2ccc(F)cc2)CN(C(=O)Nc2ccccc2)C/C1=C\c1ccc(F)cc1 [Compound 34, 3,5-Bis[(E)-4-fluorobenzylidene]-4-oxo-N-phenylpiperidine-1-carboxamide]	17.5 ± 2.16 µM
197 to 199 °C	40.6 ± 2.88 µM		20.1 ± 2.44 µM	21.7 ± 2.78 µM	CCNC(=O)N1C/C(=C\c2cccs2)C(=O)/C(=C/c2cccs2)C1 [Compound 50, (3E,5E)-N-Ethyl-4-oxo-3,5-bis(thiophen-2-ylmethylene)piperidine-1-carboxamide]	47.4 ± 2.66 µM
163 to 165 °C	2.58 ± 0.27 µM		1.31 ± 0.22 µM	2.58 ± 0.3 µM	O=C1/C(=C/c2ccccc2)CN(C(=O)NCc2ccccc2)C/C1=C\c1ccccc1 [Compound 28, N-Benzyl-3,5-di[(E)-benzylidene]-4-oxopiperidine-1-carboxamide]	12 ± 1.76 µM
173 to 175 °C	8.83 ± 1.26 µM	56.2 ± 2.18 µM	1.5 ± 0.14 µM	5.73 ± 0.33 µM	CCNC(=O)N1C/C(=C\c2ccc(OC)cc2)C(=O)/C(=C/c2ccc(OC)cc2)C1 [Compound 46, N-Ethyl-3,5-bis[(E)-4-methoxybenzylidene]-4-oxopiperidine-1-carboxamide]	47.7 ± 3.05 µM
172 to 174 °C	2.56 ± 0.29 µM	33.6 ± 1.3 µM	1.61 ± 0.14 µM	2.95 ± 0.24 µM	CCNC(=O)N1C/C(=C\c2ccccc2)C(=O)/C(=C/c2ccccc2)C1 [Compound 27, 3,5-Di[(E)-benzylidene]-N-ethyl-4-oxopiperidine-1-carboxamide]	> 50 µM
190 to 192 °C	2.72 ± 0.2 µM	28.3 ± 1.09 µM	1.23 ± 0.15 µM	3.96 ± 0.23 µM	COc1ccc(/C=C2\CN(C(=O)Nc3ccccc3)C/C(=C\c3ccc(OC)cc3)C2=O)cc1 [Compound 43, 3,5-Bis[(E)-4-methoxybenzylidene]-4-oxo-N-phenylpiperidine-1-carboxamide]	> 50 µM
	> 50 µM		> 50 µM	33.7 ± 1.38 µM	O=C1/C(=C/c2cccs2)CN(C(=O)Nc2ccccc2)C/C1=C\c1cccs1 [Compound 48, (3E,5E)-4-Oxo-N-phenyl-3,5-bis(thiophen-2-ylmethylene)piperidine-1-carboxamide]	> 50 µM
194 to 196 °C	> 50 µM		40.8 ± 2.61 µM	24.7 ± 1.99 µM	COc1ccc(NC(=O)N2C/C(=C\c3cccs3)C(=O)/C(=C/c3cccs3)C2)cc1 [Compound 49, (3E,5E)-N-(4-Methoxyphenyl)-4-oxo-3,5-bis(thiophen-2-ylmethylene)piperidine-1-carboxamide]	> 50 µM
230 to 232 °C	4.9 ± 0.34 µM	40.3 ± 1.56 µM	2.73 ± 0.2 µM	5.1 ± 0.3 µM	COc1ccc(NC(=O)N2C/C(=C\c3ccc(C)cc3)C(=O)/C(=C/c3ccc(C)cc3)C2)cc1 [Compound 40, N-(4-Methoxyphenyl)-3,5-bis[(E)-4-methylbenzylidene]-4-oxopiperidine-1-carboxamide]	> 50 µM
186 to 188 °C	2.51 ± 0.24 µM		1.03 ± 0.29 µM	2.09 ± 0.26 µM	O=C1/C(=C/c2ccccc2)CN(C(=O)Nc2ccc(Cl)cc2)C/C1=C\c1ccccc1 [Compound 25, 3,5-Di[(E)-benzylidene]-N-(4-chlorophenyl)-4-oxopiperidine-1-carboxamide]	22.1 ± 2.06 µM
210 to 212 °C	1.24 ± 0.14 µM		1.03 ± 0.13 µM	1.44 ± 0.19 µM	COc1ccc(NC(=O)N2C/C(=C\c3ccc(Cl)cc3)C(=O)/C(=C/c3ccc(Cl)cc3)C2)cc1 [Compound 31, 3,5-Bis[(E)-4-chlorobenzylidene]-N-(4-methoxyphenyl)-4-oxopiperidine-1-carboxamide]	7.5 ± 1.75 µM
		22 ± 0.85 µM			COc1ccc(/C=C\c2cc(OC)c(OC)c(OC)c2)cc1O [Combretastatin A-4, reference compound]	
211 to 213 °C	1.31 ± 0.09 µM		1.04 ± 0.11 µM	2.35 ± 0.23 µM	CCNC(=O)N1C/C(=C\c2ccc(Cl)cc2)C(=O)/C(=C/c2ccc(Cl)cc2)C1 [Compound 32, 3,5-Bis[(E)-4-chlorobenzylidene]-N-ethyl-4-oxopiperidine-1-carboxamide]	12.1 ± 1.76 µM
179 to 181 °C	2.49 ± 0.31 µM		1.08 ± 0.18 µM	1.83 ± 0.14 µM	O=C1/C(=C/c2ccccc2)CN(C(=O)Nc2ccccc2)C/C1=C\c1ccccc1 [Compound 24, 3,5-Di[(E)-benzylidene]-4-oxo-N-phenylpiperidine-1-carboxamide]	16.6 ± 1.57 µM

SMILES	melting point	IC50 [1]	IC50 [2]	IC50 [4]	IC50 [5]	IC50 [3]
COc1cc(/C=C/C(=O)CC(=O)/C=C/c2ccc(O)c(OC)c2)ccc1O [Curcumin]				38.2 ± 2.36 µM	16 ± 2.04 µM	
